Patent US10000507B2, “Furo- and thieno-pyridine carboxamide compounds useful as pim kinase inhibitors” (Incyte Corporation, priority 2013, dated 2018)

Experiments:
Type in all cases: biochemical
[1] = biological target: Pim-1 (Homo sapiens (Human), UniProt P11309); experiment: Pim-1 kinase assay; conditions: 1 mM ATP, biotin-labeled BAD peptide substrate; read-out: Pim1 IC50
Procedure: (§1) Pim-1 and Pim-3 kinase assays-20 μL reactions were run in white 384 well polystyrene plates dotted with 0.8 μL compound/DMSO in the assay buffer (50 mM Tris, pH 7.5, 0.01% Tween-20, 5 mM MgCl2, 0.01% BSA, 5 mM DTT), containing […] Biotin-labeled BAD peptide substrate (AnaSpec 62269), 1 mM ATP, and 2.5 pM (Pim-1, Invitrogen PV3503) or 1.25 pM (Pim-3, Millipore 14-738) enzyme for 1 h at 25° C. Reactions were stopped by addition of 10 μL STOP Buffer (150 mM Tris, pH=7.5, 150 mM NaCl, 75 mM EDTA, 0.01% Tween-20, 0.3% BSA) supplemented with Phospho-Bad (Ser112) Antibody (Cell Signaling 9291) diluted 666-fold, and Streptavidin donor beads (PerkinElmer 6760002) along with Protein-A acceptor beads (PerkinElmer 6760137) at 15 μg/mL each. Supplementation of the STOP buffer with beads and stopping the reactions were done under reduced light. Prior to the stopping reactions STOP buffer with beads was pre-incubated for 1 h in the dark at room temperature. After stopping the reactions, plates were incubated for 1 h in the dark at room temperature before reading on a PHERAstar FS plate reader (BMG Labtech) under reduced light.

[2] = biological target: Pim-2 (Homo sapiens (Human), UniProt Q9P1W9); experiment: Pim-2 kinase assay; conditions: 1 mM ATP, fluorescein-labeled CREBtide peptide substrate; read-out: Pim2 IC50
Procedure: Pim-2 kinase assay-20 μL reactions were run in white 384 well polystyrene plates dotted with 0.8 μL compound/DMSO in the assay buffer (50 mM Tris, pH 7.5, 0.01% Tween-20, 5 mM MgCl2, 0.01% BSA, 5 mM DTT), containing 0.05 μm Fluorescein-labeled CREBtide peptide substrate (Invitrogen PV3508), 1 mM ATP, and 1 nM enzyme (Invitrogen PV3649) for 2 h at 25° C. Reactions were stopped by addition of 10 μL TR-FRET Dilution Buffer (Invitrogen PV3574) with 30 mM EDTA and 1.5 nM LanthaScreen Tb-CREB pSer133 antibody (Invitrogen PV3566). After 30 min. incubation at room temperature, plates were read on a PHERAstar FS plate reader (BMG Labtech).

[3] = biological target: Pim-3 (Homo sapiens (Human), UniProt Q86V86); experiment: Pim-3 kinase assay; conditions: 1 mM ATP, biotin-labeled BAD peptide substrate; read-out: Pim3 IC50
Procedure: as §1

Pim-1, sequence (P11309 whole entry): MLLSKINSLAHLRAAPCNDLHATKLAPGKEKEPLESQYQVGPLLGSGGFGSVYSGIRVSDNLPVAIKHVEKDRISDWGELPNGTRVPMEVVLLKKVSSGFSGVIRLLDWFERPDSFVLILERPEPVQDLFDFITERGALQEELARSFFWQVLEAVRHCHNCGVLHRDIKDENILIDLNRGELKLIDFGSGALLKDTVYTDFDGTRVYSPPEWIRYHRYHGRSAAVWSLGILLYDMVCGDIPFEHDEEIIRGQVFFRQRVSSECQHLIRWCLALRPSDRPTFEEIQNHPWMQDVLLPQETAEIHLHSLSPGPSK
Pim-2, sequence (Q9P1W9 whole entry): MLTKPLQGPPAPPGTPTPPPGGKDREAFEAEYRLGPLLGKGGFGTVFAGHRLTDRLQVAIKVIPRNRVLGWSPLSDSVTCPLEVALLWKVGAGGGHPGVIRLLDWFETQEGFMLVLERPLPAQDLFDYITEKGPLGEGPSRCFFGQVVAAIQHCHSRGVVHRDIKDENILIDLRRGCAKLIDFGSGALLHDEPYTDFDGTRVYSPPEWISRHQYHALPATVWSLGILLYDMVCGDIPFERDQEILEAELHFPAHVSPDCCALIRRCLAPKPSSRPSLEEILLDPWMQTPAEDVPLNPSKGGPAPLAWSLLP

SMILES	IC50 [1]	IC50 [2]	IC50 [3]
Nc1oc2cccnc2c1C(=O)Nc1cnccc1N1C[C@@H](N)[C@H](O)[C@@H](C(F)(F)F)C1 (single isomer, unassigned) [Example 87 (Diastereoisomer 2)]	≤ 10 nM	10 to 100 nM	≤ 10 nM
Nc1sc2ccc(Cl)nc2c1C(=O)Nc1cnccc1N1CCC[C@H](N)C1 (stereo in doubt) [Example 40, 2-Amino-N-[4-(3-aminopiperidin-1-yl)pyridin-3-yl]-5-chlorothieno[3,2-b]pyridine-3-carboxamide]	≤ 10 nM	> 2000 nM	10 to 100 nM
Cc1ccc2sc(N)c(C(=O)Nc3cnccc3N3CCC[C@H](N)C3)c2n1 (stereo in doubt) [Example 42, 2-Amino-N-[4-(3-aminopiperidin-1-yl)pyridin-3-yl]-5-methylthieno[3,2-b]pyridine-3-carboxamide]	> 40 nM	> 2000 nM	> 40 nM
Cn1ncc(NC(=O)c2c(N)sc3cccnc23)c1N1CCCC(N)CC1 (stereo not drawn) [Example 1, 2-Amino-N-[5-(4-aminoazepan-1-yl)-1-methyl-1H-pyrazol-4-yl]thieno[3,2-b]pyridine-3-carboxamide]	≤ 10 nM	100 to 1000 nM	≤ 10 nM
Cn1ncc(NC(=O)c2c(N)sc3cccnc23)c1N1CCC[C@H](N)C1 [Example 2, 2-Amino-N-{5-[(3S)-3-aminopiperidin-1-yl]-1-methyl-1H-pyrazol-4-yl}thieno[3,2-b]pyridine-3-carboxamide]	≤ 10 nM	100 to 1000 nM	≤ 10 nM
Cn1ncc(NC(=O)c2c(N)sc3cccnc23)c1N1CCC[C@@H](N)C1 [Example 3, 2-Amino-N-{5-[(3R)-3-aminopiperidin-1-yl]-1-methyl-1H-pyrazol-4-yl}thieno[3,2-b]pyridine-3-carboxamide]	≤ 10 nM	> 2000 nM	≤ 10 nM
Cn1ncc(NC(=O)c2c(N)sc3cccnc23)c1N1CCCNCC1 [Example 4, 2-Amino-N-[5-(1,4-diazepan-1-yl)-1-methyl-1H-pyrazol-4-yl]thieno[3,2-b]pyridine-3-carboxamide]	≤ 10 nM	> 1000 nM	≤ 10 nM
Cn1ncc(NC(=O)c2c(N)sc3cccnc23)c1-c1ccc2c(c1)C(N)CC2 (stereo not drawn) [Example 5, 2-Amino-N-[5-(3-amino-2,3-dihydro-1H-inden-5-yl)-1-methyl-1H-pyrazol-4-yl]thieno[3,2-b]pyridine-3-carboxamide]	≤ 10 nM	100 to 1000 nM	≤ 10 nM
Nc1sc2cccnc2c1C(=O)Nc1cnccc1N1CCC[C@H](N)C1 [Example 6, 2-Amino-N-{4-[(3S)-3-aminopiperidin-1-yl]pyridin-3-yl}thieno[3,2-b]pyridine-3-carboxamide]	≤ 10 nM	100 to 1000 nM	≤ 10 nM
Nc1sc2cccnc2c1C(=O)Nc1cnccc1N1CCC[C@@H](N)C1 [Example 7, 2-Amino-N-{4-[(3R)-3-aminopiperidin-1-yl]pyridin-3-yl}thieno[3,2-b]pyridine-3-carboxamide]	≤ 10 nM	> 2000 nM	> 40 nM
Nc1sc2cccnc2c1C(=O)Nc1cnccc1N1CCCNCC1 [Example 8, 2-Amino-N-[4-(1,4-diazepan-1-yl)pyridin-3-yl]thieno[3,2-b]pyridine-3-carboxamide]	≤ 10 nM	> 2000 nM	> 40 nM
Nc1sc2cccnc2c1C(=O)Nc1cnccc1N1CCCC(N)CC1 (stereo not drawn) [Example 9, 2-Amino-N-[4-(4-aminoazepan-1-yl)pyridin-3-yl]thieno[3,2-b]pyridine-3-carboxamide]	10 to 100 nM	> 2000 nM	> 40 nM
COc1cnc2c(C(=O)Nc3cnccc3N3CCC[C@H](N)C3)c(N)sc2c1 [Example 12, 2-Amino-N-{4-[(3S)-3-aminopiperidin-1-yl]pyridin-3-yl}-6-methoxythieno[3,2-b]pyridine-3-carboxamide]	≤ 10 nM	100 to 1000 nM	≤ 10 nM
COc1cnc2c(C(=O)Nc3cnn(C)c3N3CCCC(N)CC3)c(N)sc2c1 (stereo not drawn) [Example 13, 2-Amino-N-[5-(4-aminoazepan-1-yl)-1-methyl-1H-pyrazol-4-yl]-6-methoxythieno[3,2-b]pyridine-3-carboxamide]	≤ 10 nM	10 to 100 nM	≤ 10 nM
Nc1sc2cc(OC3CC3)cnc2c1C(=O)Nc1cnccc1N1CCC[C@H](N)C1 [Example 14, 2-Amino-N-{4-[(3S)-3-aminopiperidin-1-yl]pyridin-3-yl}-6-cyclopropoxythieno[3,2-b]pyridine-3-carboxamide]	≤ 10 nM	> 2000 nM	≤ 10 nM
C[C@@H]1C[C@H](N)CN(c2ccncc2NC(=O)c2c(N)sc3cccnc23)C1 [Example 15, 2-Amino-N-{4-[(3S,5R)-3-amino-5-methyl-piperidin-1-yl]pyridin-3-yl}-thieno[3,2-b]pyridine-3-carboxamide]	≤ 10 nM	100 to 1000 nM	≤ 10 nM
COc1ccnc2c(C(=O)Nc3cnccc3N3CCC[C@H](N)C3)c(N)sc12 [Example 16, 2-Amino-N-{4-[(3S)-3-aminopiperidin-1-yl]pyridin-3-yl}-7-methoxythieno[3,2-b]pyridine-3-carboxamide]	≤ 10 nM	100 to 1000 nM	≤ 10 nM
COc1ccnc2c(C(=O)Nc3cnn(C)c3N3CCCC(N)CC3)c(N)sc12 (stereo not drawn) [Example 17, 2-Amino-N-[5-(4-aminoazepan-1-yl)-1-methyl-1H-pyrazol-4-yl]-7-methoxythieno[3,2-b]pyridine-3-carboxamide]	≤ 10 nM	≤ 10 nM	≤ 10 nM
CC(C)Oc1ccnc2c(C(=O)Nc3cnccc3N3CCC[C@H](N)C3)c(N)sc12 [Example 18, 2-Amino-N-{4-[(3S)-3-aminopiperidin-1-yl]pyridin-3-yl}-7-isopropoxythieno[3,2-b]pyridine-3-carboxamide]	> 40 nM	> 1000 nM	≤ 10 nM
CC(C)Oc1ccnc2c(C(=O)Nc3cnn(C)c3N3CCCC(N)CC3)c(N)sc12 (stereo not drawn) [Example 19, 2-Amino-N-[5-(4-aminoazepan-1-yl)-1-methyl-1H-pyrazol-4-yl]-7-isopropoxythieno[3,2-b]pyridine-3-carboxamide]	≤ 10 nM	10 to 100 nM	≤ 10 nM
CCOc1ccnc2c(C(=O)Nc3cnccc3N3CCC[C@H](N)C3)c(N)sc12 [Example 20, 2-Amino-N-{4-[(3S)-3-aminopiperidin-1-yl]pyridin-3-yl}-7-ethoxythieno[3,2-b]pyridine-3-carboxamide]	≤ 10 nM	100 to 1000 nM	≤ 10 nM
CCc1cnc2c(C(=O)Nc3cnccc3N3CCC[C@H](N)C3)c(N)sc2c1 [Example 22, 2-Amino-N-{4-[(3S)-3-aminopiperidin-1-yl]pyridin-3-yl}-6-ethylthieno[3,2-b]pyridine-3-carboxamide]	≤ 10 nM	10 to 100 nM	≤ 10 nM
CCc1cnc2c(C(=O)Nc3cnn(C)c3N3CCCC(N)CC3)c(N)sc2c1 (stereo not drawn) [Example 23, 2-Amino-N-[5-(4-aminoazepan-1-yl)-1-methyl-1H-pyrazol-4-yl]-6-ethylthieno[3,2-b]pyridine-3-carboxamide]	≤ 10 nM	10 to 100 nM	≤ 10 nM
Nc1sc2cc(-c3ccccc3)cnc2c1C(=O)Nc1cnccc1N1CCC[C@H](N)C1 [Example 24, 2-Amino-N-{4-[(3S)-3-aminopiperidin-1-yl]pyridin-3-yl}-6-phenylthieno[3,2-b]pyridine-3-carboxamide]	≤ 10 nM	> 1000 nM	≤ 10 nM
Cn1ncc(NC(=O)c2c(N)sc3cc(-c4ccccc4)cnc23)c1N1CCCC(N)CC1 (stereo not drawn) [Example 25, 2-Amino-N-[5-(4-aminoazepan-1-yl)-1-methyl-1H-pyrazol-4-yl]-6-phenylthieno[3,2-b]pyridine-3-carboxamide]	≤ 10 nM	10 to 100 nM	≤ 10 nM
Nc1sc2cc(-c3c(F)cccc3F)cnc2c1C(=O)Nc1cnccc1N1CCC[C@H](N)C1 [Example 26, 2-Amino-N-{4-[(3S)-3-aminopiperidin-1-yl]pyridin-3-yl}-6-(2,6-difluorophenyl)-thieno[3,2-b]pyridine-3-carboxamide]	≤ 10 nM	10 to 100 nM	≤ 10 nM
